Measured values reported in patent US20140322315A1, “CYSTEAMINE AND/OR CYSTAMINE FOR TREATING ISCHEMIC INJURY” (The Regents of the University of California, priority 2011, published 2014).

Tested on: adiponectin
Assay: Serum total and multimeric adiponectin in subjects with NAFLD treated 24 weeks with EC-cysteamine
Format: in vivo, human
Description: Eleven children ≧10 years, with biopsy-proven NAFLD and an alanine aminotransferase (ALT) level ≧60 IU/L, were enrolled. They were either newly diagnosed or had not received specific therapy for NAFLD such as vitamin E or insulin-sensitizing drugs for at least 3 months before entering the study. All had undertaken standard of care lifestyle changes involving diet and exercise for more than 3 months. The study's primary outcome measure was normalization (≦40 IU/L) or 50% reduction in baseline serum ALT at 24 weeks of EC-cysteamine therapy; these subjects were deemed responders.
Subjects were treated for 24 wks and remained monitored for 24 weeks following its discontinuation. The mean EC-cysteamine dose ingested was 654 mg twice daily or 15.2 mg/kg/day (median dose 900 mg) for 24 wks.
During the pilot study blood was collected at pre-defined intervals. Serum was stored at −80° C. until time of assay. Adequate serum volumes were available in 10 of the 11 subjects with NAFLD and only up to 16 weeks post-treatment.
Total and multimeric adiponectin levels were measured in serum taken from: (1) subject with NAFLD collected at 0 and 24 wks of cysteamine therapy and again 16 wks after stopping therapy (i.e., 40 weeks); (2) pretreated 0-week subjects with NAFLD and adults without NAFLD at room temperature and at 37° C. and also after incubation with cysteamine 90 μM for 1 hour at 37° C.; and (3) pretreated 0-week subjects with NAFLD before and after incubation with cysteamine at varying concentrations (15, 30, 45, 60, 90, 120 μM) for 1 hour at 37° C. to establish dose-response profile.
Sodium dodecyl sulfate polyacrylamide gel electrophoresis (SDS-PAGE) was performed according to standard Laemmli's method. Sample buffer for non-reducing, non-heat denaturing conditions contained 3% SDS; 50 mmol/1 Tris-HCL, pH 6.8 and 20% glycerol. Proteins were separated using 3-8% Tris-Acetate Gels (Invitrogen, Carlsbad Calif.) with Tris-Acetate running buffer per manufacturer instructions. For immunoblotting, proteins were transferred to nitrocellulose membranes. Membranes were washed with Tween (Tris-buffered Saline, 0.1% […]) and incubated with monoclonal antibody (1:500 BD Transduction Laboratories, San Diego, Calif.). After washing with Tris-buffered saline with 0.1% Tween (4×5 min) membranes were incubated with L-COR secondary antibodies (LI-COR Biotechnology, Lincoln Nebr.) at 1:20,000. Adiponectin multimers were detected and quantified using the LICOR imager and software analysis program. Relative distribution of adiponectin multimers was determined by dividing band density by total density (cellular adiponectin) or by total adiponectin as determined by ELISA (Millipore, Billerica, Mass.). The percentage of adionectin multimer was then multiplied by the total adiponectin level to calculate absolute oligomer value.

[1] = after discontinuing therapy at 24 weeks, P=0.01

SMILES: NCCS.O=C(O)C(O)C(O)C(=O)O (stereo not shown) [cysteamine bitartrate, Cysteamine bitartrate]
- mean percent change of HMW adiponectin from baseline (7 responders, 24 weeks): 87.7%
- mean percent change of LMW adiponectin from baseline (7 responders, 24 weeks): 33.9%
- mean percent change of MMW adiponectin from baseline (7 responders, 24 weeks): 13.7%
- mean percent change of total adiponectin from baseline (7 responders, 24 weeks): 57.5%
- all adiponectin multimer levels, difference from baseline (40-week timepoint (16 weeks off therapy)): ≤ 2%
- LMW adiponectin change between 24-week and 40-week timepoints (after discontinuing therapy at 24 weeks, P=0.009): significant mean percent reduction
- MMW adiponectin change between 24-week and 40-week timepoints [1]: significant mean percent reduction
- total adiponectin change between 24-week and 40-week timepoints [1]: significant mean percent reduction
- HMW adiponectin change between 24-week and 40-week timepoints (after discontinuing therapy at 24 weeks, P=0.02): significant mean percent reduction
- mean percent increase of total adiponectin from baseline (all subjects, 0-24 weeks oral EC-cysteamine, P=0.05): 49.3%
- mean percent increase of HMW adiponectin from baseline (all subjects, 24 weeks oral EC-cysteamine (15.2 mg/kg/day), P=0.02): 53%
- mean percent increase of MMW adiponectin from baseline (all subjects, 24 weeks oral EC-cysteamine, P=0.02): 19%
- mean percent increase of LMW adiponectin from baseline (all subjects, 24 weeks oral EC-cysteamine, P=0.03): 29.4%
